Reference: patent EP0877061A1, “TRIPHENYLBORANE-ROSIN AMINE ADDUCT AND USE OF THE SAME” (Yoshitomi Fine Chemicals, Ltd., priority 1996, dated 1997)

Test system: hydrozoas
Test: Experimental Example 1: effect of antifouling agent for a fishnet, nets immersed in the sea off Konbumori in Hokkaido
Format: in vivo
Details: conclusion from Table 3
Source text: The antifouling agents for […] shown in Examples 3-10 and Comparative Examples 1 and 2 were respectively applied to Tetoron unknotted nets (1000/26, 3 sun mesh) by immersion and air-dried. The nets were retained at about 15 meters underwater in the sea off Konbumori in Hokkaido for 4 months from August 1995. The adhesion organisms were mostly hydrozoas. As Comparative Example 3, the evaluation results without a treatment with an antifouling agent for a […] shown. • Evaluation A: Area of fouling of […], 0%, no adhesion organisms. • Evaluation B: Area of fouling of […], 0-10%, small amount of adhesion organisms to the extent practically acceptable. • Evaluation C: Area of fouling of […], 10-50%, great amount of adhesion organisms, unpractical as a […]. • Evaluation D: Area of fouling of […], 50% or more, markedly greater amount of adhesion organisms.

In the case of “triphenylborane-dehydroabiethylamine adduct [Example 1]”, the “antifouling effect against coelenterates such as hydrozoas and obelia (in words)” value is reported as “extremely strong, long-lasting and practical antifouling effect”.
